Measurements as given in publication PMC5524692, “Establishing a yeast-based screening system for discovery of human GLUT5 inhibitors and activators” (Scientific Reports, 2017).
Numbering of substitutions follows the chain as printed. Like-named read-outs stand apart in the source and are kept apart here.

Experiments:
[1] = target: T1, GLUT5 (Homo sapiens, UniProt P22732, S76I); assay: inhibition of […]-fructose uptake in hxt0 yeast cells expressing GLUT5; format: cell-based
T1 construct: gene SLC2A5; GLUT5tr (truncated for the first seven amino acids at the N-terminus)
T1 sequence (P22732 8-501 S76I): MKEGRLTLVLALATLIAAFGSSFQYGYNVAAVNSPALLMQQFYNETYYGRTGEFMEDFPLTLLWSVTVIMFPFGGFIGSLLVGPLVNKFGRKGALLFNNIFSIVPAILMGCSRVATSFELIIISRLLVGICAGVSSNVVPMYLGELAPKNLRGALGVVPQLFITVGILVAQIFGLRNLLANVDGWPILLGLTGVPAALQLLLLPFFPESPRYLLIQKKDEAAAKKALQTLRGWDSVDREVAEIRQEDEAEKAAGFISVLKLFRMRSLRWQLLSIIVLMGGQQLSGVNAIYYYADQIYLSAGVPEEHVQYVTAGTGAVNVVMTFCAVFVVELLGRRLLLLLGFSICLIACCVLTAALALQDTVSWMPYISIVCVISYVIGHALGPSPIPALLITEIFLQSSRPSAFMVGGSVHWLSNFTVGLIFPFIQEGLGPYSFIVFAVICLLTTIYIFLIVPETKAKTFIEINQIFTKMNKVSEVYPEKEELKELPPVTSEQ

[2] = target: T2, GLUT5 (Homo sapiens, UniProt P22732, S72Y); assay: as above; format: cell-based
T2 construct: gene SLC2A5; GLUT5tr (truncated for the first seven amino acids at the N-terminus)
T2 sequence (P22732 8-501 S72Y): T1 sequence (P22732 8-501 S76I) with S65Y, I69S

| Structure (SMILES) | IC50 ([1]; read-out: IC50 of ECG) [µM] | IC50 ([2]; read-out: IC50 of ECG) [µM] | IC50 ([1]; read-out: IC50 of MSNBA) [µM] | IC50 ([2]; read-out: IC50 of MSNBA) [µM] |
| --- | --- | --- | --- | --- |
| O=C(O[C@@H]1Cc2c(O)cc(O)cc2O[C@@H]1c1ccc(O)c(O)c1)c1cc(O)c(O)c(O)c1 [ECG, (−)-epicatechin-gallate] | 140 ± 11 | 180 ± 11 | – | – |
| CS(=O)(=O)c1ccc(Nc2ccc3c(c2)OCO3)c([N+](=O)[O-])c1 [MSNBA, N-[4-(methylsulfonyl)-2-nitrophenyl]-1,3-benzodioxol-5-amine] | – | – | 6.3 ± 0.7 | 26.6 ± 6.7 |
